Test results published in publication PMC10066365, “Nemacol is a small molecule inhibitor of C. elegans vesicular acetylcholine transporter with anthelmintic potential” (Nature Communications, 2023).
Several values for one entry are separate records, joined by “and”; a condition that tells them apart may be missing. Equal entries are not always repeated. Where two headings read alike, the source gives them in different places.

Experiments:
[1] = test system: Dirofilaria immitis L3/L4; experiment: Dirofilaria immitis L3/L4 motility assay (DiroImager, 72 h); conditions: Dirofilaria immitis L4
[2] = test system: Dirofilaria immitis microfilariae; experiment: Dirofilaria immitis microfilariae immobility assay (DiroImager, 72 h); conditions: Dirofilaria immitis microfilariae
Method: We conducted experiments with the Missouri isolate of Dirofilaria immitis in two labs. In the first set of experiments, shown as part of Fig. 3c, D. immitis microfilariae and larval stage 3 (L3) worms were assayed in the laboratories of Bayer Animal Health GmbH (Monheim, Germany). For microfilariae immobility assays, approximately 250 freshly purified microfilariae were cultured in single wells of a 96-well microtiter plate containing supplemented RPMI 1640 medium[68],[69]. […] Microfilariae exposed to medium substituted with 1% DMSO were used as negative controls. Motility of microfilariae was evaluated after 72 h of drug exposure using an image-based approach—DiroImager, developed by Bayer Technology Services. As described in detail in refs. [68],[69], the DiroImager is an automated high-throughput platform that allows for high-resolution optical imaging of an entire 96-well microtiter plate.

[3] = test system: Pristionchus pacificus; experiment: Pristionchus pacificus motor disruption dose-response on solid media, 1 h; conditions: for mean % any phene (coiled, jerky-Unc or paralyzed): Pristionchus pacificus young adults, mean of three biological replicates; for EC50: Pristionchus pacificus, 1 h, read-out: P. pacificus motor disruption EC50
[4] = test system: C. elegans; experiment: C. elegans motor phenotype scoring on solid media (Punc/jerky-unc, coiled, paralyzed), wild-type young adults; format: in vivo, Caenorhabditis elegans; conditions: for atypical locomotion (number of animals) / coiled (number of animals) / no phene (number of animals) / paralyzed (number of animals): young adults, 20 animals per trial; for EC50: Caenorhabditis elegans, read-out: C. elegans - motor disruption EC50
[5] = conc 3.75, observed at one hour
[6] = 3.75uM, one hour, single technical replicate
[7] = 15uM, one hour, single technical replicate
[8] = 15uM, one hour, mean of three biological replicates
[9] = 60uM, one hour, single technical replicate
[10] = any motor phenotype after 1 h on solid media, ± 95% CI
[11] = 3.75uM, one hour, single replicate counts
[12] = 15uM, one hour, single replicate counts
[13] = 60uM, one hour, single replicate counts

SMILES	% effect (motility), DIROIM L4 ([1]; 10 µM) [%]	% effect (motility), DIROIM L4 ([1]; 50 µM) [%]	% effect (motility), DIROIM MF ([2]; 0.016 µM) [%]	% effect (motility), DIROIM MF ([2]; 0.08 µM) [%]	% effect (motility), DIROIM MF ([2]; 0.4 µM) [%]	% effect (motility), DIROIM MF ([2]; 2 µM) [%]	% effect (motility), DIROIM MF ([2]; 10 µM) [%]	mean % any phene (coiled, jerky-Unc or paralyzed) [3, 5] [%]	mean % any phene (coiled, jerky-Unc or paralyzed) ([3]; conc 15, observed at one hour) [%]	mean % any phene (coiled, jerky-Unc or paralyzed) ([3]; conc 60, observed at one hour) [%]	EC50 [3] [µM]	EC50 [4, 10] [µM]	also measured
Fc1ccc(N2CCN(C3CCCCCC3)CC2)cc1 [Nemacol-51]	0	10	0	0	0	0	0	2.5	60	85	13.2 ± 3	4.2 ± 2.3	atypical locomotion (number of animals) [4, 6]: 7 and 4 and 2 and 14 and 17; coiled (number of animals) [4, 6]: 0 and 4 and 2; no phene (number of animals) [4, 6]: 13 and 16 and 18 and 2 and 1; paralyzed (number of animals) [4, 6]: 0; atypical locomotion (number of animals) [4, 7]: 13 and 14 and 15 and 6 and 7; coiled (number of animals) [4, 7]: 1 and 3 and 5 and 2 and 8; no phene (number of animals) [4, 7]: 6 and 2 and 3 and 0; paralyzed (number of animals) [4, 7]: 0 and 1 and 6 and 8; any phene: mean % fraction of young adults exhibiting any phenotype (coiled, jerky-Unc or paralyzed) [4, 8]: 89.1667%; atypical locomotion (number of animals) [4, 9]: 3 and 1 and 4 and 0; coiled (number of animals) [4, 9]: 14 and 17 and 11 and 15; no phene (number of animals) [4, 9]: 0; paralyzed (number of animals) [4, 9]: 3 and 2 and 5
CCN1CCN(c2ccc([N+](=O)[O-])cc2)CC1 [Nemacol-8]	5	5	0	0	0	0	0	0	48.3333	81.6667	17.8 ± 3.7		% effect (motility), DIROIM L4 ([1]; 2 µM): 0%; any phene, mean % fraction of young adults exhibiting any phenotype (coiled, jerky-Unc or paralyzed) ([4]; 3.75uM, one hour, mean of three biological replicates): 0%; atypical locomotion (number of animals) [4, 11]: 0; coiled (number of animals) [4, 11]: 0; no phene (number of animals) [4, 11]: 20; paralyzed (number of animals) [4, 11]: 0; any phene, mean % fraction of young adults exhibiting any phenotype (coiled, jerky-Unc or paralyzed) [4, 8]: 0%; atypical locomotion (number of animals) [4, 12]: 0; coiled (number of animals) [4, 12]: 0; no phene (number of animals) [4, 12]: 20; paralyzed (number of animals) [4, 12]: 0; any phene, mean % fraction of young adults exhibiting any phenotype (coiled, jerky-Unc or paralyzed) ([4]; 60uM, one hour, mean of three biological replicates): 28.5965%; atypical locomotion (number of animals) [4, 13]: 4 and 3 and 1 and 5 and 8; coiled (number of animals) [4, 13]: 0 and 2 and 1; no phene (number of animals) [4, 13]: 16 and 17 and 13 and 15 and 11; paralyzed (number of animals) [4, 13]: 0 and 3 and 2 and 1; EC50 ([4]; 1 h): > 60 µM
FC(F)(F)c1cccc(N2CCN(CC3CC4C=CC3C4)CC2)c1 (centres unmarked) [Nemacol-47]	0	5	0	0	0	0	0	79.1667	100	100	2.9	5.7 ± 1.7	any phene (mean % fraction of young adults exhibiting any phenotype: coiled, jerky-Unc or paralyzed) ([4]; 3.75uM, one hour, mean of three biological replicates, third c14 line of each analog): 34.1667%; any phene (mean % fraction of young adults exhibiting any phenotype: coiled, jerky-Unc or paralyzed) ([4]; 15uM, one hour, mean of three biological replicates, second c14 line of each analog): 81.6667%; any phene (mean % fraction of young adults exhibiting any phenotype: coiled, jerky-Unc or paralyzed) ([4]; 60uM, one hour, mean of three biological replicates, first c14 line of each analog): 100%
